In ChEMBL document CHEMBL5143602, “Design, synthesis and antibacterial evaluation of pleuromutilin derivatives” (Bioorg Med Chem, 2022):
Values after ≈ are worked out from the molar mass of the structure shown. Active and inactive are the calls of the source. No cut-off for these calls is given here.

Experiments:
Enterococcus faecium = experiment: Antibacterial activity against Enterococcus faecium ATCC19434 assessed as inhibition of bacterial growth incubated for 18 hrs by two-fold serial dilution method; format: functional
[1] = test system: Staphylococcus epidermidis; experiment: Antibacterial activity against Staphylococcus epidermidis ATCC12228 assessed as inhibition of bacterial growth incubated for 18 hrs by two-fold serial dilution method; format: functional
[2] = test system: Mycoplasmoides pneumoniae; experiment: Antibacterial activity against Mycoplasma pneumoniae ATCC15531 assessed as inhibition of bacterial growth incubated for 18 hrs by two-fold serial dilution method; format: functional
[3] = test system: Mycoplasmoides pneumoniae; experiment: Antibacterial activity against Mycoplasma pneumoniae ATCC29342 assessed as inhibition of bacterial growth incubated for 18 hrs by two-fold serial dilution method; format: functional
HepG2 = experiment: Cytotoxicity against human HepG2 cells assessed as cell growth inhibition measured after 72 hrs by MTT assay; format: functional, cell-based; conditions: HepG2, 72 h
U-87 MG = experiment: Cytotoxicity against human U87 cells assessed as cell growth inhibition measured after 72 hrs by MTT assay; format: functional, cell-based, U-87MG ATCC
HGC-27 = experiment: Cytotoxicity against human HGC-27 cells assessed as cell growth inhibition measured after 72 hrs by MTT assay; format: functional, cell-based; conditions: HGC-27, 72 h
HT-29 = experiment: Cytotoxicity against human HT-29 cells assessed as cell growth inhibition measured after 72 hrs by MTT assay; format: functional, cell-based; conditions: HT-29, 72 h
MCF7 = experiment: Cytotoxicity against human MCF7 cells assessed as cell growth inhibition measured after 72 hrs by MTT assay; format: functional, cell-based; conditions: MCF7, 72 h
Staphylococcus aureus [4] = experiment: Antibacterial activity against methicillin-sensitive Staphylococcus aureus ATCC 29213 assessed as inhibition of bacterial growth incubated for 18 hrs by two-fold serial dilution method; format: functional
Staphylococcus aureus [5] = experiment: Antibacterial activity against methicillin-resistant Staphylococcus aureus ATCC 43300 assessed as inhibition of bacterial growth incubated for 18 hrs by two-fold serial dilution method; format: functional
[6] = test system: Mycoplasmoides pneumoniae; experiment: Antibacterial activity against drug resistant Mycoplasma pneumoniae assessed as inhibition of bacterial growth incubated for 18 hrs by two-fold serial dilution method; format: functional
Staphylococcus aureus [7] = experiment: Bactericidal activity against methicillin-resistant Staphylococcus aureus ATCC 43300 assessed as decrease in bacterial propagation at 2 to 8 times MIC and measured after 24 hrs by time kill curve assay relative to control; format: functional, organism-based
Staphylococcus aureus [8] = experiment: Bactericidal activity against methicillin-resistant Staphylococcus aureus ATCC 43300 at 4 times MIC and measured after 24 hrs by time kill curve assay relative to control; format: functional, organism-based

| SMILES | MIC (Enterococcus faecium) [µg/mL] | MIC [1] [µg/mL] | MIC [2] [µg/mL] | MIC [3] [µg/mL] | IC50 (HepG2) [µM] | IC50 (U-87 MG) [µM] | IC50 (HGC-27) [µM] | IC50 (HT-29) [µM] | IC50 (MCF7) [µM] | MIC (Staphylococcus aureus [4]) [µg/mL] | MIC (Staphylococcus aureus [5]) [µg/mL] | MIC [6] [µg/mL] | Activity (Staphylococcus aureus [7]) | Activity (Staphylococcus aureus [8]) |
| --- | --- | --- | --- | --- | --- | --- | --- | --- | --- | --- | --- | --- | --- | --- |
| C=C[C@]1(C)C[C@@H](OC(=O)CNC(=O)Nc2ccc(Br)cc2)[C@]2(C)[C@H](C)CC[C@]3(CCC(=O)[C@H]32)[C@@H](C)[C@@H]1O | 8 (≈ 13.9 µM) | > 64 | 1 (≈ 1.74 µM) | 0.5 (≈ 0.869 µM) | > 10 | > 10 | > 10 | > 10 | > 10 |  |  |  |  |  |
| C=C[C@]1(C)C[C@@H](OC(=O)CNC(=O)Nc2ccc(OC)cc2)[C@]2(C)[C@H](C)CC[C@]3(CCC(=O)[C@H]32)[C@@H](C)[C@@H]1O | 8 (≈ 15.2 µM) | > 64 | 0.125 (≈ 0.237 µM) | 0.0625 (≈ 0.119 µM) | > 10 | > 10 | > 10 | > 10 | > 10 | 0.0625 (≈ 0.119 µM) | 0.5 (≈ 0.949 µM) | 0.5 (≈ 0.949 µM) | Active |  |
| C=C[C@]1(C)C[C@@H](OC(=O)CNC(=O)Nc2ccc(F)cc2F)[C@]2(C)[C@H](C)CC[C@]3(CCC(=O)[C@H]32)[C@@H](C)[C@@H]1O | 16 (≈ 30 µM) | > 64 | 0.25 (≈ 0.469 µM) | 0.125 (≈ 0.235 µM) | > 10 | > 10 | > 10 | > 10 | > 10 | 0.25 (≈ 0.469 µM) | 0.25 (≈ 0.469 µM) | 1 (≈ 1.88 µM) |  |  |
| C=C[C@]1(C)C[C@@H](OC(=O)CNC(=O)NC(=O)c2cccc(F)c2)[C@]2(C)[C@H](C)CC[C@]3(CCC(=O)[C@H]32)[C@@H](C)[C@@H]1O | 16 (≈ 29.5 µM) | > 64 |  |  | > 10 | > 10 | > 10 | > 10 | > 10 | 0.5 (≈ 0.921 µM) | 0.25 (≈ 0.461 µM) |  |  |  |
| C=C[C@]1(C)C[C@@H](OC(=O)CSCCN(CC)CC)[C@]2(C)[C@H](C)CC[C@]3(CCC(=O)[C@H]32)[C@@H](C)[C@@H]1O [TIAMULIN] | 16 (≈ 32.4 µM) | 32 (≈ 64.8 µM) |  |  | > 10 | > 10 | > 10 | > 10 | > 10 | 0.5 (≈ 1.01 µM) | 0.25 (≈ 0.506 µM) |  |  | Active |
| C=C[C@]1(C)C[C@@H](OC(=O)CNC(=O)Nc2ccccc2Br)[C@]2(C)[C@H](C)CC[C@]3(CCC(=O)[C@H]32)[C@@H](C)[C@@H]1O | 32 (≈ 55.6 µM) | > 64 | 0.5 (≈ 0.869 µM) | 0.5 (≈ 0.869 µM) | > 10 | > 10 | > 10 | > 10 | > 10 | 0.25 (≈ 0.434 µM) | 0.25 (≈ 0.434 µM) | 2 (≈ 3.47 µM) |  |  |
| C=C[C@]1(C)C[C@@H](OC(=O)CNC(=S)NCCCCCCCCCCCCCCCCCC)[C@]2(C)[C@H](C)CC[C@]3(CCC(=O)[C@H]32)[C@@H](C)[C@@H]1O | 32 (≈ 46.4 µM) | > 64 |  |  |  |  |  |  |  | 4 (≈ 5.8 µM) | 2 (≈ 2.9 µM) |  |  |  |
| C=C[C@]1(C)C[C@@H](OC(=O)CNC(=O)Nc2ccc(Cl)cc2)[C@]2(C)[C@H](C)CC[C@]3(CCC(=O)[C@H]32)[C@@H](C)[C@@H]1O | 16 (≈ 30.1 µM) | > 64 |  |  | > 10 | > 10 | > 10 | > 10 | > 10 | 0.25 (≈ 0.471 µM) | 0.25 (≈ 0.471 µM) |  |  |  |
| C=C[C@]1(C)C[C@@H](OC(=O)CNC(=O)Nc2ccc(F)cc2)[C@]2(C)[C@H](C)CC[C@]3(CCC(=O)[C@H]32)[C@@H](C)[C@@H]1O | 16 (≈ 31.1 µM) | > 64 | 0.25 (≈ 0.486 µM) | 0.125 (≈ 0.243 µM) | > 10 | > 10 | > 10 | > 10 | > 10 | 0.5 (≈ 0.972 µM) | 0.125 (≈ 0.243 µM) | 1 (≈ 1.94 µM) |  |  |
| C=C[C@]1(C)C[C@@H](OC(=O)CNC(=O)NC(=O)c2ccccc2F)[C@]2(C)[C@H](C)CC[C@]3(CCC(=O)[C@H]32)[C@@H](C)[C@@H]1O | 8 (≈ 14.7 µM) | > 64 | 1 (≈ 1.84 µM) | > 8 |  |  |  |  |  | 0.5 (≈ 0.921 µM) | 0.5 (≈ 0.921 µM) | 2 (≈ 3.69 µM) |  |  |
| C=C[C@]1(C)C[C@@H](OC(=O)CNC(=S)NC(=O)c2ccccc2)[C@]2(C)[C@H](C)CC[C@]3(CCC(=O)[C@H]32)[C@@H](C)[C@@H]1O | 32 (≈ 59.2 µM) | > 64 |  |  |  |  |  |  |  | > 64 | > 64 |  |  |  |
| C=C[C@]1(C)C[C@@H](OC(=O)CO)[C@]2(C)[C@H](C)CC[C@]3(CCC(=O)[C@H]32)[C@@H](C)[C@@H]1O [PLEUROMULIN] | 32 (≈ 84.5 µM) | 16 (≈ 42.3 µM) | 0.125 (≈ 0.33 µM) | 0.0625 (≈ 0.165 µM) |  |  |  |  |  | 1 (≈ 2.64 µM) | 2 (≈ 5.28 µM) | 0.25 (≈ 0.66 µM) |  |  |
| C=C[C@]1(C)C[C@@H](OC(=O)CNC(=S)Nc2ccc(OC)cc2)[C@]2(C)[C@H](C)CC[C@]3(CCC(=O)[C@H]32)[C@@H](C)[C@@H]1O | 16 (≈ 29.5 µM) | > 64 |  |  |  |  |  |  |  | 1 (≈ 1.84 µM) | 0.5 (≈ 0.921 µM) |  |  |  |
| C=C[C@]1(C)C[C@@H](OC(=O)CNC(=O)NCC)[C@]2(C)[C@H](C)CC[C@]3(CCC(=O)[C@H]32)[C@@H](C)[C@@H]1O | 32 (≈ 71.3 µM) | > 64 |  |  |  |  |  |  |  | 2 (≈ 4.46 µM) | 2 (≈ 4.46 µM) |  |  |  |
| C=C[C@]1(C)C[C@@H](OC(=O)CNC(=O)NCCC)[C@]2(C)[C@H](C)CC[C@]3(CCC(=O)[C@H]32)[C@@H](C)[C@@H]1O | 32 (≈ 69.2 µM) | > 64 |  |  |  |  |  |  |  | 2 (≈ 4.32 µM) | 2 (≈ 4.32 µM) |  |  |  |
| C=C[C@]1(C)C[C@@H](OC(=O)CNC(=O)Nc2cccc(C)c2)[C@]2(C)[C@H](C)CC[C@]3(CCC(=O)[C@H]32)[C@@H](C)[C@@H]1O | 16 (≈ 31.3 µM) | > 64 |  |  |  |  |  |  |  | 0.125 (≈ 0.245 µM) | 0.5 (≈ 0.979 µM) |  |  |  |
| C=C[C@]1(C)C[C@@H](OC(=O)CNC(=O)Nc2cccc(Br)c2)[C@]2(C)[C@H](C)CC[C@]3(CCC(=O)[C@H]32)[C@@H](C)[C@@H]1O | 4 (≈ 6.95 µM) | > 64 | 0.25 (≈ 0.434 µM) | 0.25 (≈ 0.434 µM) | > 10 | > 10 | 3.95 | > 10 | > 10 | 0.0625 (≈ 0.109 µM) | 0.25 (≈ 0.434 µM) | 1 (≈ 1.74 µM) |  |  |
| C=C[C@]1(C)C[C@@H](OC(=O)CNC(=O)Nc2ccccc2)[C@]2(C)[C@H](C)CC[C@]3(CCC(=O)[C@H]32)[C@@H](C)[C@@H]1O | 32 (≈ 64.4 µM) | > 64 |  |  |  |  |  |  |  | 0.5 (≈ 1.01 µM) | 0.5 (≈ 1.01 µM) |  |  |  |
| C=C[C@]1(C)C[C@@H](OC(=O)CNC(=S)Nc2ccccc2)[C@]2(C)[C@H](C)CC[C@]3(CCC(=O)[C@H]32)[C@@H](C)[C@@H]1O | 16 (≈ 31.2 µM) | > 64 |  |  |  |  |  |  |  | 1 (≈ 1.95 µM) | 1 (≈ 1.95 µM) |  |  |  |
